Test results from patent publication US20220218725A1, “METHODS AND MATERIALS FOR TREATING CANCER” (Mayo Foundation for Medical Education and Research, priority 2019, published 2022).

Assays:
BT-474 cells = assay: Cell viability, Annexin V/PI assay; assay type: cell-based; details: BT-474 (Breast cancer); 48 hours; KPT-330 0.1-1.0 μM, CS 1-3 mM, single agent or combination
Procedure: (§6) KPT-330 purchased from Selleckchem (cat no: S7252) was dissolved in DMSO while CS (Santa Cruz, Calif.S 2016-36-6), sodium salicylate (Sigma-Aldrich, cat no: S3007), acetyl salicylate (Sigma-Aldrich, cat no: CAS 50-78-2) was diluted in PBS. […] The concentration range of KPT-330 was 0.05-1.0 μM while CS was 1-3 mM were used for ex vivo treatment and incubation time ranged from 24 hours to 72 hours.

JeKo-1 cells [1] = assay: Cell viability, Annexin V/PI assay (also IC50 and combination index); assay type: cell-based; details: for % viability normalized for respective controls: JeKo-1 (MCL), 48 hours, KPT-330 0.1-1.0 μM, CS 1-3 mM, single agent or combination
Procedure: To assess apoptosis and cellular proliferation, all cell lines were treated with CRM 1 inhibitors (concentration ranging from 0.05-2 μM) and salicylates at concentrations ranging from (0.001-10 mM) for 48 hours before analysis was performed. DMSO was used to substitute the drug in controls.
After 48 hours incubation, cells were washed with Annexin buffer solution and stained with both propidium iodide (PI) and FITC-Annexin V (Life Technologies), and assayed on a BD Accuri flow cytometer (BD Biosciences). Apoptosis results were analyzed with BD CellQuest software. For cell cycle analysis, Jeko-1 cell line was intubated with CRM 1 inhibitors (concentrations ranging from […]) and salicylates (concentration at 3 mM) and Ly-1 cell line was intubated with CRM 1 inhibitors (concentrations ranging from 0.1-2.0 μM) and salicylates (concentration at 0.5-5 mM) for 24 and 48 hours and then fixed with 95% cold ethanol and kept at 4 C° for 24 h and subsequently underwent cell cycle analysis after PI staining and analysis was performed using BD FACS caliber flow cytometer (BD Biosciences) and FlowJo software (Tree Star).
(§1) Cell lines were purchased from the cell line repositories ATCC (Manassas, Va.) or DSMZ (Braunschweig, Germany). These included MCL cell lines: JeKo-1, Mino; TCL cell lines: Karpas-299, SR-786; DLBCL cell lines: OCI-Ly1 (LY-1), OCI-Ly3 (LY-3), OCI-Ly19 (LY-19), SU-DHL-6 (DHL-6); MM cell lines: RPMI, U266, OPM2, Xgl, KMS2; ALL cell lines: CRL-1783; non-small cell lung cancer: NCI-H460, A549, HCC827; small cell lung cancer: H1048; sarcoma: Fuji, SW872. Cell lines were cultured according to instruction.
(§2) KPT-330 purchased from Selleckchem (cat no: S7252) was dissolved in DMSO while CS (Santa Cruz, Calif.S 2016-36-6), sodium salicylate (Sigma-Aldrich, cat no: S3007), acetyl salicylate (Sigma-Aldrich, cat no: CAS 50-78-2) was diluted in PBS. Ketorolac (Sigma-Aldrich, cat no: 1356665), Bortezomib (Selleckchem, cat no: S1013), gemcitabine (Sigma-Aldrich, cat no: G6423), Leptomycin-B (Sigma-Aldrich, cat no: L2913-2X) and KPT-185 (Selleckchem, cat no: S7125) were dissolved in DMSO. The concentration range of KPT-330 was 0.05-1.0 μM while CS was 1-3 mM were used for ex vivo treatment and incubation time ranged from 24 hours to 72 hours. For the PARP inhibitor assay, olaparib 10 μM (SelleckChem, cat no: AZD2281 Ku-0059436) was used.
(§3) The viability assessment for cell lines and primary patients samples were conducted with the Annexin V/PI method.
Jeko-1 and OCI-Ly1 cell lines were used to assess the IC50. Keeping CS at 3 mM, KPT-330 was titrated. Relative IC50 was calculated as described elsewhere (see, e.g., Sebaugh et al., Pharmaceutical statistics 10:128-134 (2011)). The combination index was calculated as described elsewhere (see, e.g., Chou et al., Cancer Res 70:440-446 (2010)).

[2] = tested on: CMML patient-derived bone marrow sample; assay: Hematopoietic progenitor colony forming assay; assay type: cell-based, human; details: assessed by counting colony forming units in methyl cellulose media, KPT-330 0.05-0.5 μM, CS 1-3 mM
Excerpt: CMML patient-derived bone marrow samples were first treated with ammonium chloride to deplete red blood cells, washed in RPMI, then plated at a final concentration of 5×10^4-2×10^5 cells/mL in addition to drug(s). This solution was immediately inoculated into methylcellulose (StemCell) formulated with recombinant cytokines to support the optimal growth of erythroid progenitor cells, granulocyte-macrophage progenitor cells, and multipotent granulocyte, erythroid, macrophage and megakaryocyte progenitor cells. Plates were incubated with respective treatment conditions at 37° C. and colonies were enumerated on day 10-14.

A549 cells = assay: Cell viability, Annexin V/PI assay; assay type: cell-based; details: A549 (Non-small cell lung cancer); 48 hours; KPT-330 0.1-1.0 μM, CS 1-3 mM, single agent or combination
Procedure: as §1, §2, §3

CRL-1873 (RS4-11 cells) = assay: Cell viability, Annexin V/PI assay; assay type: cell-based; details: CRL-1873 (ALL); 48 hours; KPT-330 0.1-1.0 μM, CS 1-3 mM, single agent or combination
Procedure: as §1, §2, §3

BT-20 cells = assay: Cell viability, Annexin V/PI assay; assay type: cell-based; details: BT-20 (Breast cancer); 48 hours; KPT-330 0.1-1.0 μM, CS 1-3 mM, single agent or combination
Procedure: as §6

RPCI cells = assay: Cell viability, Annexin V/PI assay; assay type: cell-based; details: RPCI (WM); 48 hours; KPT-330 0.1-1.0 μM, CS 1-3 mM, single agent or combination
Procedure: (§4) All cell lines were obtained from commercial vendors (ATCC or DSMZ), which includes mantle cell lymphoma (MCL) cell lines: Jeko-1, Mino, JVM-2; T-cell lymphoma (TCL) cell lines: SU-DHL-1, Karpas-299, SR-786 and HUT-78; and diffuse large B-cell lymphoma cell lines: OCI-Ly1, SU-DHL-2, OCI-Ly3, SU-DHL-6; Waldenstrom macroglobulinemia (WM) cell lines: BCWM, MWCL, RPCI; sarcoma cell lines: FUJI, SW872, and pancreatic cancer cell lines: PANC-1.
(§5) WM, TCL, and MCL cell lines were cultured in RPMI media supplemented with 10% fetal bovine serum while DLBCL cell lines were cultured in IMDM media with 10% human serum (Sigma). Pancreatic cancer and sarcoma cell lines were cultured in DMEM with 10% fetal bovine serum. All cell lines were assessed for their viability before use in experiments. Only cells with the viability of 85% or greater were used.

Panc-1 cells = assay: Cell viability, Annexin V/PI assay; assay type: cell-based; details: Panc-1 (Pancreatic cancer); 48 hours; KPT-330 0.1-1.0 μM, CS 1-3 mM, single agent or combination
Procedure: as §4, §5

BCWM cells = assay: Cell viability, Annexin V/PI assay; assay type: cell-based; details: BCWM (WM); 48 hours; KPT-330 0.1-1.0 μM, CS 1-3 mM, single agent or combination
Procedure: as §4, §5

MWCL cells = assay: Cell viability, Annexin V/PI assay; assay type: cell-based; details: MWCL (WM); 48 hours; KPT-330 0.1-1.0 μM, CS 1-3 mM, single agent or combination
Procedure: as §4, §5

JeKo-1 cells [3] = assay: Cell cycle analysis (PI staining, flow cytometry); assay type: cell-based; details: unsynchronized JeKo-1 cells
Procedure: For cell cycle analysis, Jeko-1 cell line was intubated with CRM 1 inhibitors (concentrations ranging from 0.1-0.5p M) and salicylates (concentration at 3 mM) and Ly-1 cell line was intubated with CRM 1 inhibitors (concentrations ranging from 0.1-2.0 μM) and salicylates (concentration at 0.5-5 mM) for 24 and 48 hours and then fixed with 95% cold ethanol and kept at 4 C° for 24 h and subsequently underwent cell cycle analysis after PI staining and analysis was performed using BD FACS caliber flow cytometer (BD Biosciences) and FlowJo software (Tree Star).
Cell Cycle Analysis Following incubation, cells were fixed with 70% cold ethanol and kept at 4 C° for 24 hours, followed by PI staining. Cell cycle analysis was done by using a BD FACS Caliber flow cytometer (BD Biosciences) and analyzed using FlowJo® Software.
A double thymine block was used to synchronize cells at G1 phase of the cell cycle. JeKo-1 cells were cultured in thymidine at 2 mM in RPMI for 9 hours. Subsequently, cells were washed and cultured in RPMI media (RPMI) without additional thymidine for 12 hours and the second block of cell cycle with thymidine (2 mM) was carried out for an additional 9 hours with in RPMI. Following the double thymidine block, cells were released by re-culturing cells in normal RPMI without additional thymidine. The viability of cells at the time of release was >90%. […]

SMILES | % viability normalized for respective controls (BT-474 cells) [%] | % viability normalized for respective controls (JeKo-1 cells [1]) [%] | % viability normalized for respective controls [2] [%] | % viability normalized for respective controls (A549 cells) [%] | % viability normalized for respective controls (CRL-1873 (RS4-11 cells)) [%] | % viability normalized for respective controls (BT-20 cells) [%] | % viability normalized for respective controls (RPCI cells) [%] | % viability normalized for respective controls (Panc-1 cells) [%] | % viability normalized for respective controls (BCWM cells) [%] | % viability normalized for respective controls (MWCL cells) [%] | fraction of cells in the G2/M phase (JeKo-1 cells [3]) [%] | IC50 (JeKo-1 cells [1]; Homo sapiens, JeKo-1 (MCL cells), 72 hours, selinexor titrated alone or with CS kept at 3 mM) [nM]
C[N+](C)(C)CCO.O=C([O-])c1ccccc1O [CS, choline salicylate] | 110 | 93 | 53 | 94 | 91.5 | 89 | 92 | 90 | 84 | 89 | 11 | 
O=C(/C=C\n1cnc(-c2cc(C(F)(F)F)cc(C(F)(F)F)c2)n1)NNc1cnccn1 [KPT-330, (Z)-3-[3-[3,5-bis (trifluoromethyl)phenyl]-1,2,4-triazol-1-yl]-N′-pyrazin-2-ylprop-2-enehydrazide] | 73 | 95 | 56 | 101 | 79 | 58 | 63 | 90 | 69 | 65 | 15 | 1300
